Consider 13 compounds from patent US20100285957A1, “THIAZOLYLOXYPHENYLAMIDINES OR THIADIAZOLYLOXYPHENYLAMIDINES AND THEIR USE AS FUNGICIDES” (Bayer CropScience AG, priority 2007, published 2010).

Where two headings read alike, the source gives them in different places.

For data set [1], the system named is Puccinia recondita var. tritici. Put plainly: Puccinia test (wheat)/protective. It counts as in vivo. As to conditions: 240 h, 1000 ppm active substance, protective, evaluation 10 days after inoculation, read-out: degree of effectiveness. As for the experimental part: Puccinia Test (Wheat)/Protective
(§1) To prepare a suitable active substance composition, 1 part by weight of active substance is mixed with the given amounts of solvent and emulsifier and the concentrate is diluted to the desired concentration using water.
For the testing of protective effectiveness, young plants are sprayed with the active substance composition in the application rate given. After the spray coating has been dried on, the plants are sprayed with a suspension of the conidia of Puccinia recondita var. tritici. The plants remain in an incubation chamber at 20° C. and 100% relative humidity for 48 hours.
The plants are then placed in a greenhouse at a temperature of approximately 20° C. and a relative humidity of 80%, in order to encourage the development of rust pustules.
Evaluation is carried out 10 days after the inoculation. In this connection, 0% means a degree of effectiveness corresponding to that of the control, while a degree of effectiveness of 100% means that no infestation is observed.

Data set [2] relates to Blumeria graminis f.sp. hordei. Put plainly: Blumeria graminis test (barley)/protective. Format: in vivo. The settings on record: 168 h, 1000 ppm active substance, protective, evaluation 7 days after inoculation, read-out: degree of effectiveness. As for the experimental part:
Blumeria graminis Test (Barley)/Protective
as §1
For the testing of protective effectiveness, young plants are sprayed with the active substance composition in the application rate given.
After the spray coating has been dried on, the plants are dusted with spores of Blumeria graminis f.sp. hordei.
The plants are placed in a greenhouse at a temperature of approximately 20° C. and a relative humidity of approximately 80%, in order to encourage the development of mildew pustules.
Evaluation is carried out 7 days after the inoculation. In this connection, 0% means a degree of effectiveness corresponding to that of the control, while a degree of effectiveness of 100% means that no infestation is observed.

For another data set, the system named is Pyrenophora teres. The data set can be described thus: Pyrenophora teres test (barley)/protective. It counts as in vivo. As to conditions: 500 ppm active substance, protective, evaluation 7-9 days after inoculation, read-out: degree of effectiveness. As for the experimental part:
Pyrenophora teres Test (Barley)/Protective
as §1
For the testing of protective effectiveness, young barley plants are sprayed with the active substance composition in the application rate given. 1 day after the treatment, the plants are inoculated with an aqueous suspension of the spores of Pyrenophora teres and then remain at 100% relative humidity and 20° C. for 48 h. Subsequently, the plants are placed in a greenhouse at 80% relative humidity and a temperature of 20° C.
Evaluation is carried out 7-9 days after the inoculation. In this connection, 0% means a degree of effectiveness corresponding to that of the control, while a degree of effectiveness of 100% means that no infestation is observed.

The test system of the next data set is Alternaria solani. The data set can be described thus: Alternaria test (tomato)/protective. The settings on record: 168 h, 500 ppm active substance, protective, evaluation 7 days after inoculation, read-out: degree of effectiveness. Format: in vivo. As for the experimental part: Alternaria Test (Tomato)/Protective [table] To prepare a suitable active substance composition, 1 part by weight of active substance is mixed with the given amounts of solvent and emulsifier and the concentrate is diluted to the desired concentration using water. For the testing of protective effectiveness, young tomato plants are sprayed with the active substance composition in the application rate given. 1 day after the treatment, the plants are inoculated with a suspension of the spores of Alternaria solani and then stand at 100% relative humidity and 20° C. for 24 h. Subsequently, the plants stand at 96% relative humidity and a temperature of 20° C. Evaluation is carried out 7 days after the inoculation. In this connection, 0% means a degree of effectiveness corresponding to that of the control, while a degree of effectiveness of 100% means that no infestation is observed.

The next data set deals with Sphaerotheca fuliginea. The data set can be described thus: Sphaerotheca test (cucumber)/protective. Format: in vivo. As to conditions: Podosphaera fuliginea, 168 h, 100 ppm active substance, protective, evaluation 7 days after inoculation, read-out: degree of effectiveness. As for the experimental part:
Sphaerotheca Test (Cucumber)/Protective [table] To prepare a suitable active substance composition, 1 part by weight of active substance is mixed with the given amounts of solvents and emulsifier and the concentrate is diluted to the desired concentration using water. For the testing of protective effectiveness, young plants are sprayed with the active substance composition in the application rate given. After the spray coating has been dried on, the plants are inoculated with an aqueous suspension of spores of Sphaerotheca fuliginea. The plants are then placed in a greenhouse at approximately 23° C. and a relative humidity of approximately 70%. Evaluation is carried out 7 days after the inoculation. In this connection, 0% means a degree of effectiveness corresponding to that of the control, while a degree of effectiveness of 100% means that no infestation is observed.

For another data set, the system named is Uromyces appendiculatus. The data set can be described thus: Uromyces test (beans)/protective. Format: in vivo. The settings on record: 240 h, 100 ppm active substance, protective, evaluation 10 days after inoculation, read-out: degree of effectiveness. As for the experimental part:
Uromyces Test (Beans)/Protective [table] To prepare a suitable active substance composition, 1 part by weight of active substance is mixed with the given amounts of solvents and emulsifier and the concentrate is diluted to the desired concentration using water. For the testing of protective effectiveness, young plants are sprayed with the active substance composition in the application rate given. After the spray coating has been dried on, the plants are inoculated with an aqueous suspension of the spores of the bean rust pathogen Uromyces appendiculatus and then remain in an incubation chamber at approximately 20° C. and 100% relative humidity for 1 day. The plants are then placed in a greenhouse at approximately 21° C. and a relative humidity of approximately 90%. Evaluation is carried out 10 days after the inoculation. In this connection, 0% means a degree of effectiveness corresponding to that of the control, while a degree of effectiveness of 100% means that no infestation is observed.

Take `Cc1cc(Oc2nc(C3CC3C)ns2)c(C)cc1/N=C/N1CCC1` (centres unmarked) [Compound 32, N-[(1E)-Azetidin-1-ylmethylidene]-2,5-dimethyl-4-{[3-(2-methylcyclopropyl)-1,2,4-thiadiazol-5-yl]oxy}aniline]: the logP in “physchem” (pH 2.3) worked out at 1.96.
Consider `Cc1cc(Oc2nc(C3(C)CC3)ns2)c(C)cc1/N=C/N1CCC1` [Compound 31, N-[(1E)-Azetidin-1-ylmethylidene]-2,5-dimethyl-4-{[3-(1-methylcyclopropyl)-1,2,4-thiadiazol-5-yl]oxy}aniline], for which the pest or weed control at 1000 ppm in data set [1] and in data set [2] was ≥ 70% in each case. This compound showed a log partition coefficient (logP) in the data set “physchem” (pH 2.3) of 1.6.
For `Cc1cc(Oc2nc(C3CC3C)ns2)c(C)cc1/N=C/N1CCCCC1` (centres unmarked) [Compound 16, 2,5-Dimethyl-4-{[3-(2-methylcyclopropyl)-1,2,4-thiadiazol-5-yl]oxy}-N-[(1E)-piperidin-1-ylmethylidene]aniline], the pest or weed control at 1000 ppm in data set [1] and in data set [2] was ≥ 70% each time. In addition, the pest or weed control at 500 ppm with Pyrenophora teres and in the data set with Alternaria solani was ≥ 70% each time. Also, the pest or weed control at 100 ppm in the data set on Sphaerotheca fuliginea and with Uromyces appendiculatus was ≥ 70% each time. For the same compound, the logP in “physchem” (pH 2.3) worked out at 1.78.
Turning to `Cc1cc(Oc2nc(C3CC3C)ns2)c(C)cc1N=CN(C)C` (centres unmarked) [Compound 20, N′-(2,5-Dimethyl-4-{[3-(2-methylcyclopropyl)-1,2,4-thiadiazol-5-yl]oxy}phenyl)-N,N-di-methylimidoformamide], the pest or weed control at 1000 ppm in data set [1] and in data set [2] was ≥ 70% in each case. For the same compound, the pest or weed control at 500 ppm with Pyrenophora teres and with Alternaria solani was ≥ 70% in each case. Also, the pest or weed control at 100 ppm in the data set with Sphaerotheca fuliginea and with Uromyces appendiculatus was ≥ 70% throughout. The compound also returned a logP in the data set “physchem” (pH 2.3) of 1.62.
Consider `Cc1cc(Oc2nc(C3(C)CC3(Cl)Cl)ns2)c(C)cc1/N=C/N1CCCCC1` (centres unmarked) [Compound 26, 4-{[3-(2,2-Dichloro-1-methylcyclopropyl)-1,2,4-thiadiazol-5-yl]oxy}-2,5-dimethyl-N-[(1E)-piperidin-1-ylmethylidene]aniline], for which the pest or weed control at 500 ppm in the data set with Pyrenophora teres and with Alternaria solani was ≥ 70% in each case. For the same compound, the pest or weed control at 100 ppm in the data set with Sphaerotheca fuliginea and with Uromyces appendiculatus was ≥ 70% each time. For the same compound, the logP in “physchem” (pH 2.3) came to 2.08.
Turning to `CCN(C)C=Nc1cc(Cl)c(Oc2nc(C3(Cl)CC3)ns2)cc1C` [Compound 33, N′-(5-Chloro-4-{[3-(1-chlorocyclopropyl)-1,2,4-thiadiazol-5-yl]oxy}-2-methylphenyl)-N-ethyl-N-methylimidoformamide], the pest or weed control at 500 ppm in the data set on Pyrenophora teres and in the data set on Alternaria solani was ≥ 70% in each case. Moreover, in the data set on Sphaerotheca fuliginea, the pest or weed control at 100 ppm is ≥ 70%. The logP in the data set “physchem” (pH 2.3) is 1.72.
Regarding `CCC1(c2nsc(Oc3cc(C)c(/N=C/N4CCCCC4)cc3C)n2)C(C)C1(Cl)Cl` (centres unmarked) [Compound 28, 4-{[3-(2,2-Dichloro-1-ethyl-3-methylcyclopropyl)-1,2,4-thiadiazol-5-yl]oxy}-2,5-dimethyl-N-[(1E)-piperidin-1-ylmethylidene]aniline], the pest or weed control at 500 ppm in the data set with Pyrenophora teres is ≥ 70%. Also, the pest or weed control at 100 ppm in the data set on Sphaerotheca fuliginea and with Uromyces appendiculatus was ≥ 70% throughout. For the same compound, in “physchem” (pH 2.3), the logP turned out to be 2.35.
Regarding `Cc1cc(Oc2nc(C3(Cl)CC3)ns2)c(C)cc1N=CN(C)C` [Compound 19, N′-(4-{[3-(1-Chlorocyclopropyl)-1,2,4-thiadiazol-5-yl]oxy}-2,5-dimethylphenyl)-N,N-dimethylimidoformamide], the pest or weed control at 1000 ppm in data set [1] and in data set [2] was ≥ 70% each time. The pest or weed control at 500 ppm with Pyrenophora teres and with Alternaria solani was ≥ 70% each time. Further, the pest or weed control at 100 ppm in the data set on Sphaerotheca fuliginea and with Uromyces appendiculatus was ≥ 70% in each case. Moreover, the logP in “physchem” (pH 2.3) amounted to 1.52.
`Cc1cc(Oc2nc(C3(C)CC3)c(Cl)s2)c(C)cc1/N=C/N1CCCCC1` [Compound 24, 4-{[5-Chloro-4-(1-methylcyclopropyl)-1,3-thiazol-2-yl]oxy}-2,5-dimethyl-N-[(1E)-piperidin-1-ylmethylidene]aniline]: the pest or weed control at 1000 ppm in data set [1] and in data set [2] was ≥ 70% throughout. The pest or weed control at 500 ppm in the data set with Pyrenophora teres and with Alternaria solani was ≥ 70% each time. Besides, the pest or weed control at 100 ppm with Sphaerotheca fuliginea and in the data set with Uromyces appendiculatus was ≥ 70% each time. This compound showed a logP in “physchem” (pH 2.3) of 2.34.
As for `Cc1cc(Oc2nc(C3(C)CC3)ns2)c(C)cc1N` [2,5-Dimethyl-4-{[3-(1-methylcyclopropyl)-1,2,4-thiadiazol-5-yl]oxy}aniline], the logP in “physchem” (pH 2.3) worked out at 3.08.
In the case of `CCN(C)C=Nc1cc(C)c(Oc2nc(C3(C)CC3)cs2)cc1C` [Compound 22, N′-(2,5-Dimethyl-4-{[4-(1-methylcyclopropyl)-1,3-thiazol-2-yl]oxy}phenyl)-N-ethyl-N-methylimidoformamide], the pest or weed control at 1000 ppm in data set [1] and in data set [2] was ≥ 70% each time. In addition, the pest or weed control at 500 ppm with Alternaria solani was ≥ 70%. Also, the figures for the logP in “physchem” and in the data set “physchem” (pH 2.3) were 4.96 and 1.86, respectively.
`Cc1cc(Oc2nc(C3(Cl)CC3)ns2)c(C)cc1/N=C/N1CCCCC1` [Compound 13, 4-{[3-(1-Chlorocyclopropyl)-1,2,4-thiadiazol-5-yl]oxy}-2,5-dimethyl-N-[(1E)-piperidin-1-yl-methylidene]aniline]: the pest or weed control at 1000 ppm in data set [1] and in data set [2] was ≥ 70% each time. The pest or weed control at 500 ppm with Pyrenophora teres was ≥ 70%. Besides, the pest or weed control at 100 ppm with Sphaerotheca fuliginea is ≥ 70%. For the same compound, the logP in the data set “physchem” (pH 2.3) worked out at 1.76.
As for `Cc1cc(Oc2nc(C3(Cl)CC3)ns2)c(Cl)cc1/N=C/N1CCCCC1` [Compound 34, 5-Chloro-4-{[3-(1-chlorocyclopropyl)-1,2,4-thiadiazol-5-yl]oxy}-2-methyl-N-[(1E)-piperidin-1-ylmethylidene]aniline], in the data set on Pyrenophora teres, the pest or weed control at 500 ppm is ≥ 70%. Also, in the data set on Sphaerotheca fuliginea, the pest or weed control at 100 ppm was ≥ 70%. This compound also displayed a logP in the data set “physchem” (pH 2.3) of 1.98.

The term logP denotes a log measure of how a compound divides between an organic and an aqueous phase.
